Data as given in US4320052A, “Derivatives of A-30912A nucleus” (Eli Lilly and Company, priority 1980, dated 1982).
Values after ≈ are worked out from the molar mass of the structure shown. Values joined by “and” are separate entries in the source; they are usually repeats but may differ in a detail not shown here. Equal values may be shown once. Read-outs that look alike come from different tables or passages of the source. Numbered stars: 1 amine (or outer) side, 2 acyl side, 3 side chain; on linkers, the order of the positions; unused ones are H or OH. Bridge positions count the residues as written; N and C are the ends. Square brackets hold non-standard residues; d marks the D form. Peptide text beside a SMILES is read from it. * marks the point of attachment. Orn(4R-OH,5R-OH) = O=C([C@H](C[C@@H](O)[C@@H](O)N[*:3])N[*:1])[*:2]; hTyr(3S-OH,4S-OH) = N[C@H](C(=O)O)[C@H](O)[C@@H](O)c1ccc(O)cc1; Pro(3S-OH,4S-Me) = C[C@H]1CN[C@H](C(=O)O)[C@H]1O; Docosanoyl = CCCCCCCCCCCCCCCCCCCCCC(=O)*; Nonadecanoyl = CCCCCCCCCCCCCCCCCCC(=O)*; Arachidoyl = CCCCCCCCCCCCCCCCCCCC(=O)*; X1 = CC/C=C\C/C=C\C/C=C\CCCCCCCC(=O)*; X2 = CCCCC/C=C/C/C=C/CCCCCCCC(=O)*; Hyp = O=C(O)[C@@H]1C[C@@H](O)CN1; Tridecanoyl = CCCCCCCCCCCCC(=O)*

Tests used:
Candida albicans A-26 [1] = assay: Agar plate disc diffusion test (zone of inhibition); assay type: cell-based; details: suspension in methanol 1 mg/ml, 7mm disc; 24-48 hours at 25-37° C.
Protocol: (§1) Tables II and III give the results of the testing in vitro of the compounds of Examples 1-16 by agar-plate disc-diffusion methods. In Table II activity is measured by the size (diameter in mm.) of the observed zone of inhibition of the microorganism produced by the test compound. In Table III, activity is measured by the minimal inhibitory concentration (MIC) of the substance (μg/dic) required to inhibit growth of the test organism. Table IV gives the results of the testing in vitro of the n-tridecanoyl derivative of A30912A nucleus (Formula III, R is n-C12 H25) against five strains of Candida albicans by the agar dilution method. In […] activity is measured by the minimal inhibitory concentration (MIC) of the substance (μg/ml) required to inhibit the test organism.
(§2) ^(a) Compounds were tested as suspension in methanol at a
(§3) concentration of 1 mg/ml. by dipping a 7mm disc into the suspension and
(§4) placing it on the agar surface. Incubation: 24-48 hours at 25-37°

Neurospora crassa 846 = assay: as above; assay type: cell-based
Protocol: as §1, §2, §3, §4

[2] = test system: Trichophyton mentagraphytes A-23; assay: as above; assay type: cell-based, Trichophyton mentagrophytes
Protocol: as §1, §2, §3, §4

[3] = Blood levels after oral administration in mice (bioassay vs. Aspergillus montevidensis A35137); details: mouse, in vivo; for concentration at 4 h: po; for Blood Levels After Oral Administration In Mice: 240 min
Excerpt: determined by bioassay vs. Aspergillus montevidensis A35137.

[4] = test system: Trichophyton mentagrophytes #6; assay: Agar plate disc diffusion test (MIC); assay type: cell-based; details: 0.01M sodium borate pH 7.5; 20 μg/disc top, twofold dilutions; 24 hours, 30° C.
Protocol: as §1
(§5) *Compounds were suspended in 0.01M sodium borate solution, pH 7.5. The
(§6) compounds were tested at 20 μg/disc at top level and at twofold
(§7) dilutions until end points were reached. Incubation: 24 hours; 30°

Candida albicans A-26 [5] = assay: Agar plate disc diffusion test (MIC); assay type: cell-based; details: 0.01M sodium borate pH 7.5; 20 μg/disc top, twofold dilutions; 24 hours, 30° C.
Protocol: as §1, §5, §6, §7

[6] = test system: Saccharomyces pastoranius X-52; assay: Agar plate disc diffusion test (zone of inhibition); assay type: cell-based, Saccharomyces pastorianus
Protocol: as §1, §2, §3, §4

[7] = Toxicity in dog, intravenous administration; assay type: in vivo; details: 100 mg/kg per day for five days
Candida albicans A-26 [8] = assay: In vivo activity against Candida albicans A-26 infection in mice; design: species or system mice infected with Candida albicans A-26; details: Candida albicans, A26, sc, 24 h; for minimal effective dose: read-out: Lowest Active Dose
Protocol: The results of in vivo tests to evaluate the effectiveness of the compound of Examples 1-16 against an infection caused by Candida albicans A-26 in mice are given in Table V, where activity is measured by the ED50 value (the dose in mg/kg. required to cure 50% of the test animals). Where an ED50 value was not obtained, activity is indicated by the lowest dose at which a significant anti-fungal effect is observed. In this test, groups of male albino mice (specific pathogen free), weighing 18 to 20 grams, are infected intravenously with Candida albicans A-26. The animals are X-irradiated 24 hours prior to infection at about 50 roentgens per minute for 8 minutes (400 total dose) to reduce immune responses to the infecting organism. At 0, 4, and 24 hours post infection each group of mice is given graded doses subcutaneously of the test compound as a suspension in 33% polyethylene glycol-water. The day of death for each animal is recorded.
mg/kg. Dosages given 0, 4, and 24 hours post injection as suspension of
test compound in 30% PEG--H2 O. Number of mice receiving test
compounds at each dosage level; 6 mice per group. Number of mice in
control (untreated) group: 10 mice per group.
**As measured by increase in survival time of treated animals versus
control, calculated by method of Reed v Mueuch, American J. Hygiene, 27,

Candida albicans = assay: Agar dilution test against strains of Candida albicans (MIC); assay type: cell-based
Protocol: as §1

[9] = Neurospora crassa, 846, suspension in methanol 1 mg/ml, 7mm disc, *distinct measurable zone of inhibition with regrowth of organism around disc, read-out: Size of zone of inhibition, Neurospora crassa 846 (*)
[10] = A23, suspension in methanol 1 mg/ml, 7mm disc, 24-48 hours at 25-37° C., read-out: Size of zone of inhibition, Trichophyton mentagraphytes A-23
[11] = X52, suspension in methanol 1 mg/ml, 7mm disc, 24-48 hours at 25-37° C., read-out: Size of zone of inhibition, Saccharomyces pastoranius X-52
[12] = mice, subcutaneous, schedule A (40, 20, 15, and 10 mg/kg), 0, 4, 24 hours, increase in survival time, read-out: ED50
[13] = mice, subcutaneous, schedule A (40, 20, 15, and 10 mg/kg), 0, 4, 24 hours
[14] = Neurospora crassa, 846, suspension in methanol 1 mg/ml, 7mm disc, 24-48 hours at 25-37° C., read-out: Size of zone of inhibition, Neurospora crassa 846

SMILES | Size of zone of inhibition, Candida albicans A-26 (Candida albicans A-26 [1]) [mm] | MIC, Trichophyton mentagrophytes #6 [4] | MIC, Candida albicans A-26 (Candida albicans A-26 [5]) | zone of inhibition at 1000 µg/mL (Neurospora crassa 846; [9]) [mm] | zone of inhibition at 1000 µg/mL [2, 10] [mm] | concentration at 4 h ([3]; 416 mg/kg) [ng/mL] | zone of inhibition at 1000 µg/mL [6, 11] [mm] | ED50 (Candida albicans A-26 [8]; [12]) [mg/kg] | minimal effective dose (Candida albicans A-26 [8]; [13]) [mg/kg] | Blood Levels After Oral Administration In Mice [3] [ng/mL] | zone of inhibition at 1000 µg/mL (Neurospora crassa 846; [14]) [mm] | other results
CCCCCCCCCCCCC(=O)N[C@H]1C[C@@H](O)[C@@H](O)NC(=O)[C@@H]2[C@@H](O)[C@@H](C)CN2C(=O)[C@H]([C@@H](C)O)NC(=O)[C@H]([C@H](O)[C@@H](O)c2ccc(O)cc2)NC(=O)[C@@H]2C[C@@H](O)CN2C(=O)[C@H]([C@@H](C)O)NC1=O [Example 2, n-Tridecanoyl Derivative of A-30912A Nucleus] (Tridecanoyl-[Orn(4R-OH,5R-OH)]T[Hyp][hTyr(3S-OH,4S-OH)]T[Pro(3S-OH,4S-Me)]; lactam 1-C) | 30 | 0.039 μg/disc | 0.625 μg/disc |  |  |  |  |  |  |  |  | zone of inhibition at 1000 µg/mL (Neurospora crassa 846; Neurospora crassa, 846, read-out: Size of zone of inhibition, Neurospora crassa 846 (*)): 32 mm; zone of inhibition at 1000 µg/mL ([2]; A23, read-out: Size of zone of inhibition, Trichophyton mentagraphytes A-23 (*)): 60 mm; concentration at 4 h ([3]; four hours after 416 mg/kg by gavage, suspension in 33% PEG 400-H2O, read-out: Blood Levels After Oral Administration In Mice): 100 ng/mL; zone of inhibition at 1000 µg/mL ([6]; X52, read-out: Size of zone of inhibition, Saccharomyces pastoranius X-52): 21 mm; SGPT levels [7]: increased SGPT levels; hemolysis [7]: evidence of hemolysis; outward signs of toxicity [7]: no outward signs of toxicity; ED50 (Candida albicans A-26 [8]): 34 mg/kg; minimal effective dose (Candida albicans A-26 [8]): 20 mg/kg; MIC (Candida albicans; read-out: MIC, Candida albicans A26): 0.312 µg/mL (≈ 0.314 µM); MIC (Candida albicans; strain SBH 16, agar dilution, read-out: MIC, Candida albicans SBH 16): 0.625 µg/mL (≈ 0.629 µM); MIC (Candida albicans; strain SBH 28, agar dilution, read-out: MIC, Candida albicans SBH 28): 0.625 µg/mL (≈ 0.629 µM); MIC (Candida albicans; strain SBH 29, agar dilution, read-out: MIC, Candida albicans SBH 29): 0.625 µg/mL (≈ 0.629 µM); MIC (Candida albicans; strain SBH 31, agar dilution, read-out: MIC, Candida albicans SBH 31): 0.625 µg/mL (≈ 0.629 µM)
CCCCC/C=C/C/C=C/CCCCCCCC(=O)N[C@H]1C[C@@H](O)[C@@H](O)NC(=O)[C@@H]2[C@@H](O)[C@@H](C)CN2C(=O)[C@H]([C@@H](C)O)NC(=O)[C@H]([C@H](O)[C@@H](O)c2ccc(O)cc2)NC(=O)[C@@H]2C[C@@H](O)CN2C(=O)[C@H]([C@@H](C)O)NC1=O [Example 10] (X2-[Orn(4R-OH,5R-OH)]T[Hyp][hTyr(3S-OH,4S-OH)]T[Pro(3S-OH,4S-Me)]; lactam 1-C) | 24 | < 0.039 μg/disc | 0.156 μg/disc | 26 | 36 | 610 | 24 | 16 | 10 |  |  | 
CC/C=C\C/C=C\C/C=C\CCCCCCCC(=O)N[C@H]1C[C@@H](O)[C@@H](O)NC(=O)[C@@H]2[C@@H](O)[C@@H](C)CN2C(=O)[C@H]([C@@H](C)O)NC(=O)[C@H]([C@H](O)[C@@H](O)c2ccc(O)cc2)NC(=O)[C@@H]2C[C@@H](O)CN2C(=O)[C@H]([C@@H](C)O)NC1=O [Example 11] (X1-[Orn(4R-OH,5R-OH)]T[Hyp][hTyr(3S-OH,4S-OH)]T[Pro(3S-OH,4S-Me)]; lactam 1-C) | 30 | 0.039 μg/disc | 1.25 μg/disc | 33 | 36 |  | 16 | > 40 | > 40 | 0 |  | 
CCCCCCCCCCCCCCCCCCC(=O)N[C@H]1C[C@@H](O)[C@@H](O)NC(=O)[C@@H]2[C@@H](O)[C@@H](C)CN2C(=O)[C@H]([C@@H](C)O)NC(=O)[C@H]([C@H](O)[C@@H](O)c2ccc(O)cc2)NC(=O)[C@@H]2C[C@@H](O)CN2C(=O)[C@H]([C@@H](C)O)NC1=O [Example 12] (Nonadecanoyl-[Orn(4R-OH,5R-OH)]T[Hyp][hTyr(3S-OH,4S-OH)]T[Pro(3S-OH,4S-Me)]; lactam 1-C) | 19 | 1.25 μg/disc and 0.625 μg/disc | 2.5 μg/disc and 5.0 μg/disc | 18 |  | 54000 | 17 |  | ≥ 5 |  |  | zone of inhibition at 1000 µg/mL ([2]; A23, suspension in methanol 1 mg/ml, 7mm disc, *distinct measurable zone of inhibition with regrowth of organism around disc, read-out: Size of zone of inhibition, Trichophyton mentagraphytes A-23 (*)): 22 mm
CCCCCCCCCCCCCCCCCCCC(=O)N[C@H]1C[C@@H](O)[C@@H](O)NC(=O)[C@@H]2[C@@H](O)[C@@H](C)CN2C(=O)[C@H]([C@@H](C)O)NC(=O)[C@H]([C@H](O)[C@@H](O)c2ccc(O)cc2)NC(=O)[C@@H]2C[C@@H](O)CN2C(=O)[C@H]([C@@H](C)O)NC1=O [Example 13] (Arachidoyl-[Orn(4R-OH,5R-OH)]T[Hyp][hTyr(3S-OH,4S-OH)]T[Pro(3S-OH,4S-Me)]; lactam 1-C) | 16 | 5 μg/disc | 5.0 μg/disc |  | 16 |  | 18 | 40 | 10 | 0 | 13 | 
CCCCCCCCCCCCCCCCCCCCCC(=O)N[C@H]1C[C@@H](O)[C@@H](O)NC(=O)[C@@H]2[C@@H](O)[C@@H](C)CN2C(=O)[C@H]([C@@H](C)O)NC(=O)[C@H]([C@H](O)[C@@H](O)c2ccc(O)cc2)NC(=O)[C@@H]2C[C@@H](O)CN2C(=O)[C@H]([C@@H](C)O)NC1=O [Example 15] (Docosanoyl-[Orn(4R-OH,5R-OH)]T[Hyp][hTyr(3S-OH,4S-OH)]T[Pro(3S-OH,4S-Me)]; lactam 1-C) | 12 | 5 μg/disc | 5.0 μg/disc |  | 20 |  | 19 | > 40 | > 40 | 0 | 15 | 
